In patent publication US9789101B2, “Methods and compositions for treating microbial infection using pyrroloquinone” (HELPERBY THERAPEUTICS LIMITED, priority 2010, dated 2017):
Where a name gives a salt, the structure may show the parent alone.

Assays:
[1] = tested on: clinically latent microorganisms; assay: Screening for ability to kill clinically latent microorganisms (method of WO2000028074); format: cell-based; settings: observed by the Applicant
Text: International Patent Application, Publication Number WO2000028074 describes a method of screening compounds to determine their ability to kill clinically latent microorganisms. […] This observation has necessitated the development of novel antimicrobials which may be used to kill clinically latent microorganisms.
By way of example, WO2000028074 describes a suitable method of screening compounds to determine their ability to kill clinically latent microorganisms. A typical method may include the following steps: • (1) growing a bacterial culture to stationery phase; • (2) treating the stationery phase culture with one or more antimicrobial agents at a concentration and or time sufficient to kill growing bacteria, thereby selecting a phenotypically resistant sub-population; • (3) incubating a sample of the phenotypically resistant subpopulation with one or more test compounds or agents; and • (4) assessing any antimicrobial effects against the phenotypically resistant subpopulation.

[2] = tested on: log phase Staphylococcus aureus; assay: Chequerboard analysis of HT00800059 and HT61 against log phase Staphylococcus aureus; format: cell-based, Staphylococcus aureus (Oxford)
Protocol: (§1) Staphylococcus aureus (Oxford); Gram positive; Reference strain.
(§2) Log phase growth of methicilin sensitive Staphylococcus aureus (MSSA) was carried out as follows: • Bacteria were grown in 10 ml of nutrient broth (No. 2, (Oxoid)) overnight at 37° C. with continuous shaking at 120 rpm. The overnight cultures were diluted 1000× with iso-sensitest broth. The cultures were incubated at 37° C. with shaking for 1-2 hours to reach log CFU 6. Viability of the bacteria was estimated by colony forming unit (CFU) counts. From serial 10-fold dilutions of the experimental cultures, 100 μl samples were added to triplicate plates of nutrient agar plates (Oxoid) or blood agar plates (Oxoid). CFUs were counted after incubation of the plates at 37° C. for 24 hours.
(§3) Bacterial cultures: 10 μl of overnight cultures was added to 10 ml of fresh iso-sensitest broth to make the inoculation to 10^6 CFU/ml. 290 μl of the cell suspension was added to each well of the 96 well plate, which was incubated at 37° C. for 24 hours. 300 μl of iso-sensitest broth without bacterial cells were added to wells of the plate as a no bacterial control.
(§4) MIC determination: The optical density of the bacterial cells was read at 405 nm using a plate reader (Bio TEK). The MIC concentration was determined as the lowest concentration of drug which inhibits the bacterial growth.
HT61 was dissolved in DMSO to the stock concentration of 10 mg/ml.
(§5) HT00800059 was dissolved in H2O to the stock solution 30.07 mg/ml.
The drugs were first diluted as follows: • 28.8 μl of HT61 at 10 mg/ml was added into 271.2 μl of H2O followed by diluting 2 fold for 6 times.
Both drugs were mixed as following pattern: 10 μl of HT00800059 from each dilution was added into the wells of a 96 well plate from top to bottom and 10 μl of HT61 from each dilution was added to the same 96 well plate from left to right. After addition of 280 μl log phase cell suspension, the final concentrations of drugs for each well in the 96 well plate are shown in the table below.
Incubation of the compounds with the bacterial suspension was carried out for 24 hours. The kill effect of the drug combination and signal drug MIC was measured by optical density reading at 405 nm with a plate reader (Bio TEK). The MIC concentration was determined as the lowest concentration of drug which inhibits the bacterial growth.
(§6) The fractional inhibitory concentration (FIC) index was carried out as follows: (MIC of drug A, tested in combination)/(MIC of drug A, tested alone)+(MIC of drug B, tested in combination)/(MIC of drug B, tested alone). The interaction was defined as synergistic if the FIC index was <1, additive if the FIC index was =1 and antagonistic if the FIC index was >1.

[3] = tested on: log phase Staphylococcus aureus; assay: Chequerboard analysis of HT00800059 with HT230 or HT281 against log phase Staphylococcus aureus; format: cell-based, Staphylococcus aureus (Oxford)
Protocol: as §1, §2, §3, §4
HT230 was dissolved in DMSO to the stock concentration of 10 mg/ml.
HT281 was dissolved in DMSO to the stock concentration of 10 mg/ml.
as §5
HT230 or HT281 (10 mg/ml) was firstly diluted to 0.96 mg/ml, then a serial of 2 fold dilution was carried out.
This was followed by the addition of 280 μl of log phase culture at 10^6 CFU/ml to make the final concentrations of each drug as shown.
In the above table, values in bold text are for HT00800059. Values in plain text are for HT230 or HT281. The numbers shown in each well are μg/ml.
Incubation of the compounds with the bacterial suspension was carried out for 24 hours. The kill effects of the drug combination were measured by optical density reading at 405 nm with a plate reader (Bio TEK).
as §6

[4] = tested on: log phase (i.e. multiplying) bacteria; settings: J. Am. Pharm. Assoc. 1956; cited from earlier work
[5] = Staphylococcus aureus, read-out: alone MIC

Structure (SMILES)	activity against clinically latent microorganisms [1]	MIC ([2]; Staphylococcus aureus)	MIC [2, 5]	MIC ([2]; Staphylococcus aureus, with HT61 4 μg/ml, Plate 1, read-out: MIC of HT00800059 + HT61)	MIC ([2]; drug alone, Plate 2)	HT00800059 MIC in combination ([2]; with HT61 4 μg/ml)	MIC of HT00800059 + HT61 ([2]; with HT61 4 μg/ml, Plate 2)	MIC after combination ([3]; HT230/HT00800059 chequerboard)	MIC before combination ([3]; HT230/HT00800059 chequerboard)	MIC after combination ([3]; HT281/HT00800059 chequerboard)	MIC before combination ([3]; HT281/HT00800059 chequerboard)	MIC [3, 5]	HT00800059 MIC in combination ([3]; with HT230 at 2 μg/ml)	HT00800059 MIC in combination ([3]; with HT281 at 4 μg/ml)	activity in vitro against a variety of log phase bacteria [4]
C/C(=C\C(=O)OCCCCCCCCC(=O)O)C[C@@H]1OC[C@H](C[C@@H]2O[C@H]2[C@@H](C)[C@H](C)O)[C@@H](O)[C@H]1O [Mupirocin]	little or no activity	–	–	–	–	–	–	–	–	–	–	–	–	–	–
CCCCOc1ccc(C(=O)CCN2CCCCC2)cc1 [HT00800059, dyclonine (1-(4-Butoxyphenyl)-3-(1-piperidinyl)-1-propanone) hydrochloride]	–	512 µg/mL	512 µg/mL	128 µg/mL	512 µg/mL	128 µg/mL	128 µg/mL	64 µg/mL	512 µg/mL	128 µg/mL	512 µg/mL	512 µg/mL	64 µg/mL	128 µg/mL	activity
